Assay results taken from patent US6242443A, “1,2,4-benzothiadiazine derivatives, their preparation and use” (Novo Nordisk AIS, priority 1996, dated 2001).
pEC50: −log10 of the molar value.

Legend:
RIN 5F cells = assay: 86Rb+ efflux from a β-cell line (increased Rb-efflux in RIN 5F cells); type: cell-based; conditions: 1 h at room temperature, pH 7.1
Method: ^86 Rb^+ efflux from a β-cell line
The RIN 5F cell line was grown in RPMI 1640 with Glutamax I, supplemented with 10% fetal calf serum (from GibcoBRL, Scotland, UK) and maintained in an atmosphere of 5% CO2 /95% air at 37° C. The cells were detached with a Trypsin-EDTA solution (from GibcoBRL, Scotland, UK), resuspended in medium, added 1 mCi/ml ^86 Rb^+ and replated into microtiter plates (96 well cluster 3596, sterile, from Costar Corporation,MA, USA) at a density of 50000 cells/well in 100 μl/well, and grown 24 hours before use in assay.
The plates were washed 4 times with Ringer buffer (150 mM NaCl, 10 mM Hepes, 3.0 mM KCl, 1.0 mM CaCl2, 20 mM Sucrose, pH 7.1). Eighty μl Ringer buffer and 1 μl control- or test compound dissolved in DMSO was added. After incubation 1 h at room temperature with a lid, 50 μl of the supernatant was transferred to PicoPlates (Packard Instrument Company, CT, USA) and 100 μl MicroScint40 (Packard Instrument Company, CT, USA) added. The plates were counted in TopCount (Packard Instrument Company, CT, USA) for 1 min/well at the ^32 P program.
The calculation of EC50 and Emax was done by SlideWrite (Advanced Graphics Software, Inc., CA, USA) using a four parameter logistic curve: y=(a-d)/(1+(x/c)^b)+d, where a=the activity estimated at concentration zero, b=a slope factor, c=the concentration at the middle of the curve and, d=the activity estimated at infinite concentration. EC50 =c and Emax =d, when the curve is turned of at infinite concentrations.

rat aorta rings = assay: Relaxation of rat aorta rings (phenylephrine-contracted); type: cell-based; conditions: rat thoracic aorta rings contracted with phenylephrine to 80% of maximum response, cumulative addition; read-out: EC50 (concentration required to evoke a 50% relaxation of the tissue)
Method: The activity of the compounds as potassium channel openers can also be measured as relaxation of rat aortas rings according to the following procedure:
A section of rat thoracic aorta between the aortic arch and the diaphragm was dissected out and mounted as ring preparations as described by Taylor P. D. et al, Brit J. Pharmacol, 111, 42-48 (1994).
After a 45 min. equilibration period under a tension of 2 g, the preparations were contracted to achieve 80% of the maximum response using the required concentration of phenylephrine. When the phenylephrine response reached a plateau, potential vasodilatory agents were added cumulatively to the bath in small volumes using half log molar increments at 2 min intervals. Relaxation was expressed at the percentage of the contracted tension. The potency of a compound was expressed as the concentration required to evoke a 50% relaxation of the tissue.

| Structure (SMILES) | pEC50 (RIN 5F cells) | pEC50 (rat aorta rings) |
| --- | --- | --- |
| CC(C)C(C)NC1=NS(=O)(=O)c2cc(Cl)c(Cl)cc2N1 (stereo not shown) [Example 26, 6,7-Dichloro-3-(1,2-dimethylpropyl)amino-4H-1,2,4-benzothiadiazine 1,1-dioxide] | 4.89 |  |
| CC(C)NC1=NS(=O)(=O)c2ccc(C(F)(F)F)cc2N1 [Example 50, 3-Isopropylamino-6-trifluoromethyl-4H-1,2,4-benzothiadiazine 1,1-dioxide] |  | 5.28 |
| CCNC1=NS(=O)(=O)c2cc(Br)ccc2N1 [Example 94, 7-Bromo-3-ethylamino-4H-1,2,4-benzothiadiazine 1,1-dioxide] |  | 5.32 |
| CCNC1=NS(=O)(=O)c2cc(F)ccc2N1 [Example 101, 3-Ethylamino-7-fluoro-4H-1,2,4-benzothiadiazine 1,1-dioxide] |  | 4.85 |

Now from value to compound:

| pEC50 (RIN 5F cells) | pEC50 (rat aorta rings) | Structure (SMILES) |
| --- | --- | --- |
| 5.03 |  | O=S1(=O)N=C(NCC2CCCCC2)Nc2ccc(Cl)cc21 [Example 66, 7-Chloro-3-(cyclohexylmethyl)amino-4H-1,2,4-benzothiadiazine 1,1-dioxide] |
| 4.89 |  | O=S1(=O)N=C(NCc2ccccc2)Nc2ccc(I)cc21 [Example 86, 3-Benzylamino-7-iodo-4H-1,2,4-benzothiadiazine 1,1-dioxide] |
|  | 4.49 | C[C@H](NC1=NS(=O)(=O)c2cc(I)ccc2N1)c1ccccc1 [Example 88, 7-Iodo-3-(S)-(1-phenylethyl)amino-4H-1,2,4-benzothiadiazine 1,1-dioxide] |
